Experimental findings from patent US12263171B2, “7-, 8-, and 10-substituted amino triazolo quinazoline derivatives as adenosine receptor antagonists, pharmaceutical compositions and their use” (Merck Sharp & Dohme LLC, priority 2018, dated 2025) are described below.

The target of experiment [1] is human A2b adenosine receptor (Homo sapiens (Human), UniProt P29275). Description: A2b radioligand filtration binding assay (tritiated proprietary A2b antagonist, HEK293 membranes). The conditions noted are these: for IC50: unstarred values: radioligand binding; for A2B binding % inh. @ 10000 nM: unstarred. The method, boiled down:
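Displacement of a tritiated proprietary A2b antagonist from membranes of HEK293 cells recombinantly expressing human A2b receptor, measured by filtration and scintillation counting. Percent effect was normalized to total and non-specific binding and fitted with a 4-parameter logistic to give IC50.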

Experiment [2] addresses human A2a adenosine receptor (Homo sapiens (Human), UniProt P29274). Description: A2a receptor affinity radioligand binding assay ([3H] SCH58261, membranes from HEK293 or CHO cells). The conditions noted are these: unstarred values: radioligand binding. Summed up: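 Displacement of tritiated SCH58261 (working dilution 4 nM) from recombinant human A2a receptor membranes (HEK293 or CHO), 60 min at room temperature in Tris pH 7.4/MgCl2 buffer after 15–30 min compound preincubation. Scintillation counting after filtration; normalized percent effect fitted 4-parameter logistic for IC50.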

Chain of human A2b adenosine receptor (P29275 whole entry): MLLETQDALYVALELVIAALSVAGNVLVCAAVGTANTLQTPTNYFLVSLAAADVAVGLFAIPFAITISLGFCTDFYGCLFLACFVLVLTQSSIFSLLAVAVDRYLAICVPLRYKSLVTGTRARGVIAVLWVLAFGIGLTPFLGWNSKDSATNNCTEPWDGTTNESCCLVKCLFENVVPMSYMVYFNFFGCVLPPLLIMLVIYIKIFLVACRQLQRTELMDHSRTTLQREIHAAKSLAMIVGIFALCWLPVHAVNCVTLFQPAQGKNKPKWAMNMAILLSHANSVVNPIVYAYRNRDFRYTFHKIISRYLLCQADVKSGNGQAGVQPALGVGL
Chain of human A2a adenosine receptor (P29274 whole entry): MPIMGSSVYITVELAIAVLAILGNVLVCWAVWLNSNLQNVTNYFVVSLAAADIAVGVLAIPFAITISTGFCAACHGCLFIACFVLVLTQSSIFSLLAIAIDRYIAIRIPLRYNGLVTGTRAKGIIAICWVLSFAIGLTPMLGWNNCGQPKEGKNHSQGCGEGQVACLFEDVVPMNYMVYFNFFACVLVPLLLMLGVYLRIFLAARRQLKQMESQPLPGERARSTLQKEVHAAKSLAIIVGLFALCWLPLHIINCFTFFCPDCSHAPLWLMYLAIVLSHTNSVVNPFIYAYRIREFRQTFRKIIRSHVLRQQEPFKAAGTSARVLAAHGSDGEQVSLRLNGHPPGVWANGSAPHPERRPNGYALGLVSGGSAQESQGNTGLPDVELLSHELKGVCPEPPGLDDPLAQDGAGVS

In the case of `COc1cccc2c1nc(N)n1nc([C@@H]3CCCN(c4cnc(OC(F)F)c(C)c4)C3)nc21` [Example 100, (R)-2-(1-(6-(difluoromethoxy)-5-methylpyridin-3-yl)piperidin-3-yl)-7-methoxy-[1,2,4]-triazolo[1,5-c]quinazolin-5-amine], the IC50 worked out at 56.8 nM in experiment [1] and 0.7 nM in experiment [2].

For `COc1cccc2c1nc(N)n1nc([C@@H]3CCCN(c4nccnc4C)C3)nc21` [Example 101, (R)-7-methox-2-(1-(3-methylpyrazin-2-yl)piperidin-3-yl)-[1,2,4]triazolo[1,5-c]quinazolin-5-amine], the IC50 was 178 nM in experiment [1] and 0.5 nM in experiment [2].

In the case of `COc1cccc2c1nc(N)n1nc([C@@H]3CCCN(c4cnccn4)C3)nc21` [Example 102, (R)-7-methoxy-2-(1-(pyrazin-2-yl)piperidin-3-yl)-[1,2,4]triazolo[1,5-c]quinazolin-5-amine], the IC50 stood at 151 nM in experiment [1] and 1 nM in experiment [2].

As to `COc1cccc2c1nc(N)n1nc([C@@H]3CCCN(c4cncc(C)n4)C3)nc21` [Example 103, (R)-7-methoxy-2-(1-(6-methylpyrazin-2-yl)piperidin-3-yl)-[1,2,4]triazolo[1,5-c]quinazolin-5-amine], the IC50 turned out to be 159 nM in experiment [1] and 1.2 nM in experiment [2].

Take `COc1cccc2c1nc(N)n1nc([C@@H]3CCCN(c4cncc(C(F)(F)F)n4)C3)nc21` [Example 104, (R)-7-methoxy-2-(1-(6-(trifluoromethyl)pyrazin-2-yl)piperidin-3-yl)-[1,2,4]triazolo[1,5-c]quinazolin-5-amine]: the IC50 in experiment [1] was 3330 nM; in experiment [2], 0.1 nM.

For the compound `COc1cccc2c1nc(N)n1nc([C@@H]3CCCN(c4cnc(C5CC5)cn4)C3)nc21` [Example 105, (R)-2-(1-(5-cyclopropylpyrazin-2-yl)piperidin-3-yl)-7-methoxy-[1,2,4]triazolo[1,5-c]quinazolin-5-amine], the IC50 in experiment [1] was 165 nM; in experiment [2], 0.7 nM.

For the compound `COc1cccc2c1nc(N)n1nc([C@@H]3CCCN(c4cnc(C)cn4)C3)nc21` [Example 106, (R)-7-methoxy-2-(1-(5-methylpyrazin-2-yl)piperidin-3-yl)-[1,2,4]triazolo[1,5-c]quinazolin-5-amine], the IC50 was 245 nM in experiment [1] and 0.1 nM in experiment [2].

Regarding `COc1cccc2c1nc(N)n1nc([C@@H]3CCCN(c4ccc(C(C)C)nn4)C3)nc21` [Example 107, (R)-2-(1-(6-isopropylpyridazin-3-yl)piperidin-3-yl)-7-methoxy-[1,2,4]triazolo[1,5-c]quinazolin-5-amine], the IC50 in experiment [1] is 275 nM; in experiment [2], 2.1 nM.

As for `COc1cccc2c1nc(N)n1nc([C@@H]3CCCN(c4ccc(F)cn4)C3)nc21` [Example 115, (R)-2-(1-(5-fluoropyridin-2-yl)piperidin-3-yl)-7-methoxy-[1,2,4]triazolo[1,5-c]quinazolin-5-amine], the IC50 worked out at 59.1 nM in experiment [1] and 1.2 nM in experiment [2].

For `COc1cccc2c1nc(N)n1nc([C@@H]3CCCN(c4ncccn4)C3)nc21` [Example 117, (R)-7-methoxy-2-(1-(pyrimidin-2-yl)piperidin-3-yl)-[1,2,4]triazolo[1,5-c]quinazolin-5-amine], the IC50 is 431 nM in experiment [1] and 0.9 nM in experiment [2].

Consider `COc1cccc2c1nc(N)n1nc([C@@H]3CCCN(c4cnn(C5CS(=O)(=O)C5)c4)C3)nc21` [Example 121, (R)-3-(4-(3-(5-amino-7-methoxy-[1,2,4]triazolo[1,5-c]quinazolin-2-yl)piperidin-1-yl)-1H-pyrazol-1-yl)thietane 1,1-dioxide], for which the IC50 in experiment [1] worked out at 284 nM; in experiment [2], 3.6 nM.

Turning to `COc1cccc2c1nc(N)n1nc([C@@H]3CCCN(c4cnn(C5CCS(=O)(=O)CC5)c4)C3)nc21` [Example 122, (R)-4-(4-(3-(5-amino-7-methoxy-[1,2,4]triazolo[1,5-c]quinazolin-2-yl)piperidin-1-yl)-1H-pyrazol-1-yl)tetrahydro-2H-thiopyran 1,1-dioxide], the IC50 amounted to 58.4 nM in experiment [1] and 0.1 nM in experiment [2].

As to `COc1cccc2c1nc(N)n1nc(C3CCCN(c4cnn(C)c4)[C@H]3C)nc21` (stereo partly drawn) [Example 128A], in experiment [1], the “A2B binding % inh. @ 10000 nM” value is recorded as 18% inh. @ 10000 nM. The compound also yielded an IC50 in experiment [2] of 862 nM.

As for `COc1cccc2c1nc(N)n1nc(C3CCCN(c4cnn(C)c4)[C@@H]3C)nc21` (stereo partly drawn) [Example 128B], the “A2B binding % inh. @ 10000 nM” value in experiment [1] is 14% inh. @ 10000 nM. Also, the half-maximal inhibitory concentration (IC50) in experiment [2] came out at 6300 nM.

As for `COc1cccc2c1nc(N)n1nc([C@@H]3CCC[C@H](c4cnn(C)c4)C3)nc21` [Example 136D], the IC50 in experiment [1] came to 1980 nM; in experiment [2], 29 nM.

Consider `COc1cccc2c1nc(N)n1nc([C@H]3CCO[C@@H](c4cnn(C)c4)C3)nc21` [Example 139A], for which the IC50 in experiment [1] turned out to be 2460 nM; in experiment [2], 167 nM.

Turning to `COc1cccc2c1nc(N)n1nc([C@@H]3CCO[C@@H](c4cnn(C)c4)C3)nc21` [Example 139B], the IC50 in experiment [1] came to 1910 nM; in experiment [2], 3.2 nM.

In the case of `COc1cccc2c1nc(N)n1nc([C@H]3CCO[C@H](c4cnn(C)c4)C3)nc21` [Example 139C], the IC50 in experiment [1] was 1820 nM; in experiment [2], 101 nM.

`COc1cccc2c1nc(N)n1nc([C@@H]3CCO[C@H](c4cnn(C)c4)C3)nc21` [Example 139D]: the results for the IC50 in experiment [1] and in experiment [2] were 5290 nM and 58.3 nM, respectively.

As for `CCn1cc(N2C[C@H](c3nc4c5cccc(OC)c5nc(N)n4n3)CC[C@H]2C)cn1` [Example 140B], the IC50 stood at 758 nM in experiment [1] and 1.3 nM in experiment [2].

For the compound `CCn1cc(N2C[C@@H](c3nc4c5cccc(OC)c5nc(N)n4n3)CC[C@@H]2C)cn1` [Example 140C], the IC50 came to 11.2 nM in experiment [1] and 0.6 nM in experiment [2].

Consider `COc1cccc2c1nc(N)n1nc([C@H]3CC[C@H](C)N(c4cn(CC(C)(C)O)nc4C)C3)nc21` [Example 145B], for which the IC50 in experiment [1] came to 57.2 nM; in experiment [2] it was 1.2 nM.

`COc1cccc2c1nc(N)n1nc(C3CC(F)CN(c4cnn(CC(C)(C)O)c4)C3)nc21` (stereo not drawn) [Example 149]: the “A2B binding % inh. @ 10000 nM” value in experiment [1] was 32% inh. @ 10000 nM. For the same compound, the IC50 in experiment [2] is 200 nM.

`COc1cccc2c1nc(N)n1nc(C3CC(F)CN(c4cnn(CC5(O)CCC5)c4)C3)nc21` (stereo not drawn) [Example 150, 1-((4-(3-(5-amino-7-methoxy-[1,2,4]triazolo[1,5-c]quinazolin-2-yl)-5-fluoropiperidin-1-yl)-1H-pyrazol-1-yl)methyl)cyclobutan-1-ol]: the “A2B binding % inh. @ 10000 nM” value in experiment [1] is on record as 74% inh. @ 10000 nM. Also, the IC50 in experiment [2] turned out to be 80.5 nM.

As for `COc1cccc2c1nc(N)n1nc(C3CC(F)CN(c4cn(CC(C)(C)O)nc4C)C3)nc21` (stereo not drawn) [Example 151, 1-(4-(3-(5-amino-7-methoxy-[1,2,4]triazolo[1,5-c]quinazolin-2-yl)-5-fluoropiperidin-1-yl)-3-methyl-1H-pyrazol-1-yl)-2-methylpropan-2-ol], in experiment [1], the “A2B binding % inh. @ 10000 nM” value is reported as 27% inh. @ 10000 nM. In experiment [2], this compound came in with an IC50 of 210 nM.

In the case of `COc1cccc2c1nc(N)n1nc(C3CC(F)CN(c4cnn(CC(C)(C)O)c4C)C3)nc21` (stereo not drawn) [Example 152, 1-(4-(3-(5-amino-7-methoxy-[1,2,4]triazolo[1,5-c]quinazolin-2-yl)-5-fluoropiperidin-1-yl)-5-methyl-1H-pyrazol-1-yl)-2-methylpropan-2-ol], in experiment [1], the “A2B binding % inh. @ 10000 nM” value is 38% inh. @ 10000 nM. The compound further had an IC50 in experiment [2] of 249 nM.

For `COc1cccc2c1nc(N)n1nc([C@@H]3CCN(c4cnn(CC5CC5)c4)C3)nc21` [Example 162, (R)-2-(1-(1-(cyclopropylmethyl)-1H-pyrazol-4-yl)pyrrolidin-3-yl)-7-methoxy[1,2,4]triazolo[1,5-c]quinazolin-5-amine], the IC50 in experiment [1] was 17.6 nM; in experiment [2] it was 7.8 nM.

Regarding `COc1cccc2c1nc(N)n1nc(C3CCCCN(c4cn(C)nn4)C3)nc21` (stereo not drawn) [Example 175], the IC50 in experiment [1] came to 23.2 nM; in experiment [2], 0.1 nM.

As to `COc1ccc2c(c1)nc(N)n1nc([C@@H]3CCCN(c4cnn(CC5(O)CCC5)c4)C3)nc21` [Example 176], the IC50 in experiment [1] was found to be 189 nM; in experiment [2], 0.7 nM.

In the case of `COc1ccc2c(c1)nc(N)n1nc([C@@H]3CCCN(c4cnn(CC(F)(F)F)c4)C3)nc21` [Example 178, (R)-8-methoxy-2-(1-(1-(2,2,2-trifluoroethyl)-1H-pyrazol-4-yl)piperidin-3-yl)-[1,2,4]triazolo[1,5-c]quinazolin-5-amine], the figures for the IC50 in experiment [1] and in experiment [2] were 2.5 nM and 2.1 nM, respectively.

For the compound `COc1ccc2c(c1)nc(N)n1nc([C@@H]3CCCN(c4cnn(CC(C)(C)O)c4)C3)nc21` [Example 179, (R)-1-(4-(3-(5-amino-8-methoxy-[1,2,4]triazolo[1,5-c]quinazolin-2-yl)piperidin-1-yl)-1H-pyrazol-1-yl)-2-methylpropan-2-ol], the IC50 worked out at 103 nM in experiment [1] and 3.5 nM in experiment [2].

Take `COc1ccc2c(c1)nc(N)n1nc([C@@H]3CCCN(c4cn(CC(C)(C)O)nc4C)C3)nc21` [Example 180, (R)-1-(4-(3-(5-amino-8-methoxy-[1,2,4]triazolo[1,5-c]quinazolin-2-yl)piperidin-1-yl)-3-methyl-1H-pyrazol-1-yl)-2-methylpropan-2-ol]: the IC50 is 250 nM in experiment [1] and 1 nM in experiment [2].

As for `COc1ccc2c(c1)nc(N)n1nc([C@@H]3CCCN(c4cnn(CC(C)(C)O)c4C)C3)nc21` [Example 181, (R)-1-(4-(3-(5-amino-8-methoxy-[1,2,4]triazolo[1,5-c]quinazolin-2-yl)piperidin-1-yl)-5-methyl-1H-pyrazol-1-yl)-2-methylpropan-2-ol], the IC50 in experiment [1] is 104 nM; in experiment [2] it was 0.3 nM.
